Consider one molecule from patent publication US20250228850A1, “COMBINATION OF A CXCR7 ANTAGONIST WITH AN S1P1 RECEPTOR MODULATOR” (Idorsia Pharmaceuticals Ltd., priority 2019, published 2025).

The test system of this experiment is MOG-induced EAE mice. Description: Monotherapy efficacy experiment in MOG-induced EAE model (preventive setting). It is filed as in vivo, mouse (C57BL/6). How it is done: Female C57BL/6 mice are immunized with an emulsion of MOG in complete Freund's adjuvant (CFA) and pertussis toxin (day 0). A total of 150 μg of MOG is injected per mice at two sites subcutaneously in each flank of the abdomen. Mice are injected intraperitoneally with pertussis toxin a second time, 2 days after the first injection (day 2). Within 9 to 14 days, mice develop signs of paralysis which will be graded on a scale from 0 to 5 assessing the tail and limbs defined as: 0=no clinical sign of EAE, 0.5=end tail paralyzed or one limb weakness, 1=tail paralyzed or two limbs weakness, 1.5=tail paralyzed and one hind limb weakness, 2=tail paralyzed and bilateral partial hind limb paralysis, 2.5=tail paralyzed and unilateral complete hind limb paralysis, 2.75=score of 2.5+unilateral partial hind limb paralysis, 3=complete bilateral hind limb paralysis, 3.25=3+unilateral partial forelimb paralysis, 3.5=3+unilateral complete forelimb paralysis, 4=complete paralysis (moribund) and, 5=death or euthanized.
The disease progression follows a chronic progressive course with no remission.
It consists of four treatment groups: • 1. Vehicle (water) b.i.d., from day 0 • 2.
Clinical scores are assessed on a daily basis and disease development is compared between vehicle-treated mice and mice receiving COMPOUND. The cumulative disease score is calculated for each mouse by summing all the daily clinical scores over the 29-days study period. The experiment is terminated at day 29, 1 to 4 hours post dosing. […] CXCL12 plasma concentrations are determined using a commercial quantikine ELISA mouse CXCL12/SDF1c kit from R&D systems, according to manufacturer's instructions.
Groups of 10 mice are dosed orally starting at the day of disease induction (day 0). It consists of two treatment groups: • 1. Vehicle (0.5% Methylcellulose/0.5% Tween® 80) b.i.d., from day 0 • 2. Fingolimod (0.03 mg/kg) q.d.+Vehicle q.d., from day 0
Clinical scores are assessed on a daily basis and disease development is compared between vehicle-treated mice and mice receiving fingolimod. The cumulative disease score is calculated for each mouse by summing all the daily clinical scores over the 27-days study period. The experiment is terminated at day 27.

Regarding `O=C(N[C@H]1CCN(CC2CC2)C[C@@H]1C(=O)NC1(c2ncccn2)CC1)c1cc(-c2ccc(F)cc2F)on1` [COMPOUND, (3S,4S)-1-Cyclopropylmethyl-4-{[5-(2,4-difluoro-phenyl)-isoxazole-3-carbonyl]-amino}-piperidine-3-carboxylic acid (1-pyrimidin-2-yl-cyclopropyl)-amide], the “overall burden of EAE disease” value (COMPOUND 100 mg/kg b.i.d., preventive setting) is “significantly reduces”. Moreover, the “plasma CXCL12 levels” value (COMPOUND 10, 30, 100 mg/kg b.i.d. from day 0, day 29, 1 to 4 hours post dosing) is “dose-dependent increase”. Further, the “overall extent of EAE disease, mean cumulative disease scores over the 29-days study” value (COMPOUND 10, 30, 100 mg/kg b.i.d. oral from day 0 (preventive)) is on record as “dose-dependent efficacy”.
